Test results reported in ChEMBL document CHEMBL4420073, “Small molecule inhibitors of MUC1 and methods of identifying the same” (2015).

Molecular target: Mucin-1 (Homo sapiens) (UniProt P15941)
Assay: Inhibition of biotinylated MUC1-CD dimerization (unknown origin) assessed as decrease in oligomer formation at 100 uM by streptavidin-HRP based assay relative to control

Chain of Mucin-1 (Homo sapiens) (P15941 24-1097 limits assumed): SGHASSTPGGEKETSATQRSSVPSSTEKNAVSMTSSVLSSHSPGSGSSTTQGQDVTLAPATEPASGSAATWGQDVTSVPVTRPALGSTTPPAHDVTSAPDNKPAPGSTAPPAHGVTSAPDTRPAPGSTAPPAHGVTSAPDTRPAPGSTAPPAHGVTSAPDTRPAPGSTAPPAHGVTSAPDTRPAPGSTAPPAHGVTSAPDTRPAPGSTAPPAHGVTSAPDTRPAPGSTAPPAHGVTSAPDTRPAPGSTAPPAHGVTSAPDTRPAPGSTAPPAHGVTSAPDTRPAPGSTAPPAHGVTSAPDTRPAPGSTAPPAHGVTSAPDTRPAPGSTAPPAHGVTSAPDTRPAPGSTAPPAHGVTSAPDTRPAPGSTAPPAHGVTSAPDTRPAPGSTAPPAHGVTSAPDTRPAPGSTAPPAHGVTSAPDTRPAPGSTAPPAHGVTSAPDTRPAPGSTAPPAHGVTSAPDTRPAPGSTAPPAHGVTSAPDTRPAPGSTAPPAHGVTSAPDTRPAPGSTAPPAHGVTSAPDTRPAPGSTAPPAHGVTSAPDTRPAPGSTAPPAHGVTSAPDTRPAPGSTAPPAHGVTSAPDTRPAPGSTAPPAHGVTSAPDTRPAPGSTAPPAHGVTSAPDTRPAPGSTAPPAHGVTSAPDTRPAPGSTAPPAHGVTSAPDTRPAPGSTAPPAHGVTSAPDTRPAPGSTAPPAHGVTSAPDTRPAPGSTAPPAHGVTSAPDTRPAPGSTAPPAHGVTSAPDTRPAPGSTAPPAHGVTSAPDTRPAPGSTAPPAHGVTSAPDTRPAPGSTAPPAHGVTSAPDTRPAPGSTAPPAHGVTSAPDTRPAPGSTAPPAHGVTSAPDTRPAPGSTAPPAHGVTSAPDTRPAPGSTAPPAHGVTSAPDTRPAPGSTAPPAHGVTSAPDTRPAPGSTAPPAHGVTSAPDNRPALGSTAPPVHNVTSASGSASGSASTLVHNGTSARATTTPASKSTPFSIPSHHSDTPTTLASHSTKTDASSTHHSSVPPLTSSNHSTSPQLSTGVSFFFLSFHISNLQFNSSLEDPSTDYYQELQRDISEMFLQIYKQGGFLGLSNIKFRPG
Chain of Mucin-1 (Homo sapiens) (P15941 1098-1255 limits assumed): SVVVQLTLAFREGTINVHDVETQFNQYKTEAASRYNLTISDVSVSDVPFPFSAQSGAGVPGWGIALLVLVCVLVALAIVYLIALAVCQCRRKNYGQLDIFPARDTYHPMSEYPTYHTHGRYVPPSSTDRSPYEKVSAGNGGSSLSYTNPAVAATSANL

CC(=O)C(C)Oc1ccc2c(-c3ccccc3)cc(=O)oc2c1 (configuration not stated)
inhibition: > 50%

CCCCc1cc2c(=O)c(-c3cc[nH]n3)c(C)oc2cc1O
inhibition: > 50%
